US12661360B2 (Tulex Pharmaceuticals Inc., priority 2023, dated 2026)
Values after ≈ are worked out from the molar mass of the structure shown.

Assay: Solubilities of lamotrigine in various non-aqueous solvents and purified water
Format: physicochemical

In the case of `Nc1nnc(-c2cccc(Cl)c2Cl)c(N)n1` [lamotrigine, 3,5-diamino-6-(2,3-dichlorophenyl)-1,2,4-triazine], the solubility (organic solvent or mixture, solvent Glycerin) is reported as 20.2 mg/mL (≈ 79 mM), the solubility (organic solvent or mixture, solvent PEG 400) is reported as > 30 mg/mL and the solubility (organic solvent or mixture, solvent Polypropylene glycol 400) is reported as 10 to 20 mg/mL (≈ 39 to 78.1 mM). The solubility (organic solvent or mixture, solvent Propylene Glycol) was 40.2 mg/mL (≈ 157 mM) and the solubility (solvent Purified water) was 0.31 mg/mL (≈ 1.21 mM).
